Key:
[1] = test system: S. aureus DSM 20231; assay: fitness (endpoint OD595 vs no drug) (fraction); higher = more growth
Method in brief: (§1)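 Growth medium was TSB, LB Lennox or CY, and plates were kept at 37 °C. Inoculation was at OD595 0.01 in 384-well plates, at 30 µl per well or 55 µl for S. pneumoniae. OD595 was monitored every 30 min for 14 h and background-subtracted using the first reading. Fitness is the optical density on entering stationary phase divided by the robust mean of no-drug controls, with values capped at 1.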

[2] = test system: S. aureus Newman; assay: as above
Method in brief: as §1

[3] = test system: B. subtilis 168; assay: as above
Method in brief: as §1

[4] = test system: S. pneumoniae D39V; assay: as above
Method in brief: as §1

[5] = test system: S. aureus DSM 20231; assay: Bliss interaction score (quartile over a dose matrix) (fitness difference); higher = more antagonism (negative = synergy)
Method in brief: (§2)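 Fitness here means normalised growth, inferred for single drugs from the combination data. Growth was OD595 at entry into stationary phase, divided by the plate's robust no-drug mean and capped at 1. The Bliss score is observed minus expected fitness, with the expectation being the product, and its quartiles span technical, biological and donor/recipient replicates.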

[6] = test system: S. aureus Newman; assay: as above
Method in brief: as §2

[7] = test system: B. subtilis 168; assay: as above
Method in brief: as §2

[8] = test system: S. pneumoniae D39V; assay: as above
Method in brief: as §2

[9] = first compound 0.5 µg/mL, partner 0.0156 µg/mL
[10] = first compound 0.5 µg/mL, partner 0.0312 µg/mL
[11] = first compound 0.5 µg/mL, partner 0.0625 µg/mL
[12] = first compound 85.5 µg/mL, partner 1.25 µg/mL
[13] = first compound 85.5 µg/mL, partner 2.5 µg/mL
[14] = first compound 85.5 µg/mL, partner 5 µg/mL
[15] = first compound 171 µg/mL, partner 1.25 µg/mL
[16] = first compound 171 µg/mL, partner 2.5 µg/mL
[17] = first compound 171 µg/mL, partner 5 µg/mL
[18] = first compound 342 µg/mL, partner 1.25 µg/mL
[19] = first compound 342 µg/mL, partner 2.5 µg/mL
[20] = first compound 342 µg/mL, partner 5 µg/mL
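For Bliss interaction score (quartile over a dose matrix) in this document: first quartile when negative (synergy) and third quartile when positive (antagonism).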
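For fitness (endpoint OD595 vs no drug) in this document: OD595 on entry to stationary phase over no-drug wells; at most 1.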

## CCCCCCCCCC(=O)N[C@@H](Cc1c[nH]c2ccccc12)C(=O)N[C@H](CC(N)=O)C(=O)N[C@@H](CC(=O)O)C(=O)N[C@@H]1C(=O)NCC(=O)N[C@@H](CCCN)C(=O)N[C@@H](CC(=O)O)C(=O)N[C@H](C)C(=O)N[C@@H](CC(=O)O)C(=O)NCC(=O)N[C@H](CO)C(=O)N[C@@H]([C@H](C)CC(=O)O)C(=O)N[C@@H](CC(=O)c2ccccc2N)C(=O)O[C@@H]1C [Daptomycin] + Cc1onc(-c2ccccc2)c1C(=O)N[C@@H]1C(=O)N2[C@@H]1SC(C)(C)[C@@H]2C(=O)O [Oxacillin]
[1]; first compound 0.125 µg/mL, partner 0.0156 µg/mL, one replicate
  fitness: 0.728
[1]; first compound 0.125 µg/mL, partner 0.0312 µg/mL, one replicate
  fitness: 0.677
[1]; first compound 0.125 µg/mL, partner 0.0625 µg/mL, one replicate
  fitness: 0.531
[1]; first compound 0.25 µg/mL, partner 0.0156 µg/mL, one replicate
  fitness: 0.737
[1]; first compound 0.25 µg/mL, partner 0.0312 µg/mL, one replicate
  fitness: 0.722
[1]; first compound 0.25 µg/mL, partner 0.0625 µg/mL, one replicate
  fitness: 0.515
[1]; [9]
  fitness: 0.864
[1]; [10]
  fitness: 0.768
[1]; [11]
  fitness: 0.502
[1]; first compound 1 µg/mL, partner 0.0156 µg/mL
  fitness: 0.889
[1]; first compound 1 µg/mL, partner 0.0312 µg/mL
  fitness: 0.716
[1]; first compound 1 µg/mL, partner 0.0625 µg/mL
  fitness: 0.501
[1]; first compound 2 µg/mL, partner 0.0156 µg/mL
  fitness: 0.794
[1]; first compound 2 µg/mL, partner 0.0312 µg/mL
  fitness: 0.721
[1]; first compound 2 µg/mL, partner 0.0625 µg/mL
  fitness: 0.537
[2]; first compound 0.125 µg/mL, partner 0.0156 µg/mL
  fitness: 0.863
[2]; first compound 0.125 µg/mL, partner 0.0312 µg/mL
  fitness: 0.752
[2]; first compound 0.125 µg/mL, partner 0.0625 µg/mL
  fitness: 0.656
[2]; first compound 0.25 µg/mL, partner 0.0156 µg/mL
  fitness: 0.82
[2]; first compound 0.25 µg/mL, partner 0.0312 µg/mL
  fitness: 0.751
[2]; first compound 0.25 µg/mL, partner 0.0625 µg/mL
  fitness: 0.664
[2]; [9]
  fitness: 0.785
[2]; [10]
  fitness: 0.768
[2]; [11]
  fitness: 0.674
[3]; first compound 0.125 µg/mL, partner 0.002 µg/mL
  fitness: 0.979
[3]; first compound 0.125 µg/mL, partner 0.004 µg/mL
  fitness: 0.996
[3]; first compound 0.125 µg/mL, partner 0.008 µg/mL
  fitness: 0.899
[3]; first compound 0.125 µg/mL, partner 0.075 µg/mL, one replicate
  fitness: 0.618
[3]; first compound 0.125 µg/mL, partner 0.15 µg/mL, one replicate
  fitness: 0.0439
[3]; first compound 0.125 µg/mL, partner 0.3 µg/mL, one replicate
  fitness: 0.0398
[3]; first compound 0.25 µg/mL, partner 0.002 µg/mL
  fitness: 0.99
[3]; first compound 0.25 µg/mL, partner 0.004 µg/mL
  fitness: 0.959
[3]; first compound 0.25 µg/mL, partner 0.0078 µg/mL, one replicate
  fitness: 0.878
[3]; first compound 0.25 µg/mL, partner 0.008 µg/mL
  fitness: 0.921
[3]; first compound 0.25 µg/mL, partner 0.0155 µg/mL, one replicate
  fitness: 0.975
[3]; first compound 0.25 µg/mL, partner 0.031 µg/mL, one replicate
  fitness: 0.888
[3]; first compound 0.25 µg/mL, partner 0.075 µg/mL, one replicate
  fitness: 0.686
[3]; first compound 0.25 µg/mL, partner 0.15 µg/mL, one replicate
  fitness: 0.032
[3]; first compound 0.25 µg/mL, partner 0.3 µg/mL, one replicate
  fitness: 0.0692
[3]; first compound 0.5 µg/mL, partner 0.002 µg/mL
  fitness: 0.938
[3]; first compound 0.5 µg/mL, partner 0.004 µg/mL
  fitness: 0.877
[3]; first compound 0.5 µg/mL, partner 0.0078 µg/mL, one replicate
  fitness: 0.894
[3]; first compound 0.5 µg/mL, partner 0.008 µg/mL
  fitness: 0.856
[3]; first compound 0.5 µg/mL, partner 0.0155 µg/mL, one replicate
  fitness: 0.87
[3]; first compound 0.5 µg/mL, partner 0.031 µg/mL, one replicate
  fitness: 0.832
[3]; first compound 0.5 µg/mL, partner 0.075 µg/mL, one replicate
  fitness: 0.395
[3]; first compound 0.5 µg/mL, partner 0.15 µg/mL, one replicate
  fitness: 0.0273
[3]; first compound 0.5 µg/mL, partner 0.3 µg/mL, one replicate
  fitness: 0.0429
[3]; first compound 1 µg/mL, partner 0.0078 µg/mL, one replicate
  fitness: 0.662
[3]; first compound 1 µg/mL, partner 0.0155 µg/mL, one replicate
  fitness: 0.657
[3]; first compound 1 µg/mL, partner 0.031 µg/mL, one replicate
  fitness: 0.302
[4]; first compound 1 µg/mL, partner 0.005 µg/mL
  fitness: ≥ 1
[4]; first compound 1 µg/mL, partner 0.01 µg/mL
  fitness: 0.951
[4]; first compound 1 µg/mL, partner 0.02 µg/mL
  fitness: 0.904
[4]; first compound 1 µg/mL, partner 0.04 µg/mL
  fitness: 0.377
[4]; first compound 2 µg/mL, partner 0.005 µg/mL
  fitness: 0.999
[4]; first compound 2 µg/mL, partner 0.01 µg/mL
  fitness: 0.97
[4]; first compound 2 µg/mL, partner 0.02 µg/mL
  fitness: 0.908
[4]; first compound 2 µg/mL, partner 0.04 µg/mL
  fitness: 0.382
[4]; first compound 4 µg/mL, partner 0.005 µg/mL
  fitness: 0.949
[4]; first compound 4 µg/mL, partner 0.01 µg/mL
  fitness: 0.956
[4]; first compound 4 µg/mL, partner 0.02 µg/mL
  fitness: 0.895
[4]; first compound 4 µg/mL, partner 0.04 µg/mL
  fitness: 0.505
[5]
  Bliss interaction score: -0.0408
[6]
  Bliss interaction score: 0.0785
[7]
  Bliss interaction score: 0.0697
[8]
  Bliss interaction score: 0.0877

## CCN(CC)CCOC(=O)c1ccc(N)cc1 [Procaine] + CN1C2=CC=CC=C2N=C3C1=CC=CC3=O [Pyocyanin]
[1]; [12]
  fitness: 0.938
[1]; [13]
  fitness: 0.854
[1]; [14]
  fitness: 0.54
[1]; [15]
  fitness: ≥ 1
[1]; [16]
  fitness: 0.986
[1]; [17]
  fitness: 0.591
[1]; [18]
  fitness: ≥ 1
[1]; [19]
  fitness: ≥ 1
[1]; [20]
  fitness: 0.56
[2]; [12]
  fitness: 0.864
[2]; [13]
  fitness: 0.782
[2]; [15]
  fitness: 0.89
[2]; [16]
  fitness: 0.748
[2]; [17]
  fitness: 0.448
[2]; [18]
  fitness: 0.798
[2]; [19]
  fitness: 0.776
[3]; [12]
  fitness: 0.871
[3]; [13]
  fitness: 0.846
[3]; [14]
  fitness: 0.683
[3]; [15]
  fitness: 0.869
[3]; [16]
  fitness: 0.863
[3]; [17]
  fitness: 0.669
[3]; [18]
  fitness: 0.848
[3]; [19]
  fitness: 0.748
[3]; [20]
  fitness: 0.647
[4]; first compound 85.5 µg/mL, partner 0.325 µg/mL
  fitness: ≥ 1
[4]; first compound 85.5 µg/mL, partner 0.65 µg/mL
  fitness: 0.975
[4]; first compound 85.5 µg/mL, partner 1.3 µg/mL, one replicate
  fitness: 0.433
[4]; first compound 171 µg/mL, partner 0.325 µg/mL
  fitness: 0.998
[4]; first compound 171 µg/mL, partner 0.65 µg/mL
  fitness: ≥ 1
[4]; first compound 171 µg/mL, partner 1.3 µg/mL, one replicate
  fitness: 0.585
[4]; first compound 342 µg/mL, partner 0.325 µg/mL
  fitness: 0.991
[4]; first compound 342 µg/mL, partner 0.65 µg/mL
  fitness: 0.966
[4]; first compound 342 µg/mL, partner 1.3 µg/mL, one replicate
  fitness: 0.524
[5]
  Bliss interaction score: -0.0817
[6]
  Bliss interaction score: 0.148
[7]
  Bliss interaction score: -0.0724
[8]
  Bliss interaction score: -0.0685
